Legend:
Rattus norvegicus = species: Rattus norvegicus; test: Tested effective dose for maximal stimulation of adenylate cyclase in rat striatal membrane; type: functional; details: Striatum
[1] = target: D(2) dopamine receptor (Homo sapiens) (UniProt P14416)
Description: Tested for binding affinity towards D2 receptor labelled by [3H]- spiperone as radioligand

[2] = target: D(1A) dopamine receptor (Rattus norvegicus) (UniProt P18901)
[3] = target: D(1A) dopamine receptor (Rattus norvegicus) (UniProt P18901); test: Tested for its affinity towards Dopamine receptor D1 in rat striatal membrane; type: cell membranes; details: Striatum

D(1A) dopamine receptor (Rattus norvegicus), sequence (P18901 whole entry): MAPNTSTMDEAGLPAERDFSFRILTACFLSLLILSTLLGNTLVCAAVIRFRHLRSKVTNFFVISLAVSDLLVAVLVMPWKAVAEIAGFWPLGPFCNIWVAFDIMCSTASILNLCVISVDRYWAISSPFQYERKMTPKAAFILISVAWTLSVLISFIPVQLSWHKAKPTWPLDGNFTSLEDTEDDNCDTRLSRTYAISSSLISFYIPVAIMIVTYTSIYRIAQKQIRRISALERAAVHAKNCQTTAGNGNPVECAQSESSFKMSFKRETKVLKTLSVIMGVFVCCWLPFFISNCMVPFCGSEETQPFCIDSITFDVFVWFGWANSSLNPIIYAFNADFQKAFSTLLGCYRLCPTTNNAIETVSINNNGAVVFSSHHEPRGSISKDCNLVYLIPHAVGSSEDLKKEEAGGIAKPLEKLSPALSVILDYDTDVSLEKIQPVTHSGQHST
D(2) dopamine receptor (Homo sapiens), sequence (P14416 whole entry): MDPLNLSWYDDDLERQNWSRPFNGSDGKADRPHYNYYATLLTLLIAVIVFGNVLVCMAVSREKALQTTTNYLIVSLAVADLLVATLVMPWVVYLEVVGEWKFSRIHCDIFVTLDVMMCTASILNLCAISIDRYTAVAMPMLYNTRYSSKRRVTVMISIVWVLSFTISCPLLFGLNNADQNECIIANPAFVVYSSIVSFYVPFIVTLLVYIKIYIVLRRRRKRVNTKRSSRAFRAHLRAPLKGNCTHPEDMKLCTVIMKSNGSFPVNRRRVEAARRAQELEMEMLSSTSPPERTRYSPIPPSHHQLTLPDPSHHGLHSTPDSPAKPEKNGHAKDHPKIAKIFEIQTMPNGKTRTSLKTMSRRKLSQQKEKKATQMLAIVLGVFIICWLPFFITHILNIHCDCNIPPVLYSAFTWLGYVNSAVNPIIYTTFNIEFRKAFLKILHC

Structure (SMILES)	Stimulation (Rattus norvegicus)	K0.5 [1]	K0.5 [2]	pD2 [3]
Oc1cc2c(cc1O)[C@H]1c3ccccc3CN[C@@H]1CC2 (stereo in doubt; (+)-2)	105%	87.7 nM	5.6 nM	–
CN1Cc2ccccc2[C@@H]2c3cccc4[nH]cc(c34)C[C@H]21	–	–	–	6.1
Oc1cc2c(cc1O)[C@H]1c3ccccc3CN[C@@H]1CC2 (racemic)	95%	–	11.6 nM	–
Oc1cc2c(cc1O)[C@H]1c3ccccc3CN[C@@H]1CC2 (stereo in doubt; (-)-2)	–	–	149 nM	–
